Values joined by “and” are separate entries in the source; they are usually repeats but may differ in a detail not shown here. Equal entries are not always repeated.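 Cells were grown in 96-well plates and exposed to each compound for 48 hours at five concentrations; endpoints were interpolated linearly between bracketing concentrations, or set to the highest concentration if not reached. GI50 = concentration required for 50% inhibition of growth. TGI denotes the concentration required for complete inhibition of growth.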
Assays:
Experiment in all cases: NCI tumour cell line growth inhibition, 48 h
ACHN renal = test system: ACHN renal
DU-145 prostate = test system: DU-145 prostate
HOP-62 NSCLC = test system: HOP-62 NSCLC
HT29 colon = test system: HT29 colon
IGROV1 ovarian = test system: IGROV1 ovarian
M14 melanoma = test system: M14 melanoma
MALME-3M melanoma = test system: MALME-3M melanoma
MOLT-4 leukemia = test system: MOLT-4 leukemia
OVCAR-8 ovarian = test system: OVCAR-8 ovarian
SK-MEL-28 melanoma = test system: SK-MEL-28 melanoma

| SMILES | GI50 (ACHN renal) | TGI (ACHN renal) | GI50 (DU-145 prostate) | TGI (DU-145 prostate) | GI50 (HOP-62 NSCLC) | TGI (HOP-62 NSCLC) | GI50 (HT29 colon) | TGI (HT29 colon) | GI50 (IGROV1 ovarian) | TGI (IGROV1 ovarian) | GI50 (M14 melanoma) | TGI (M14 melanoma) | GI50 (MALME-3M melanoma) | TGI (MALME-3M melanoma) | GI50 (MOLT-4 leukemia) | TGI (MOLT-4 leukemia) | GI50 (OVCAR-8 ovarian) | TGI (OVCAR-8 ovarian) | GI50 (SK-MEL-28 melanoma) | TGI (SK-MEL-28 melanoma) |
| --- | --- | --- | --- | --- | --- | --- | --- | --- | --- | --- | --- | --- | --- | --- | --- | --- | --- | --- | --- | --- |
| COc1cc2c(Oc3ccc4[nH]c(C)cc4c3F)ccnc2cc1OCC1(N)CC1 | 2.05 µM | 12.5 µM | 3.67 µM | > 100 µM | 1.59 µM | 35.6 µM | 0.874 µM | 3.3 µM | 1.16 µM | 13 µM | 1.02 µM | 2.53 µM | 1.21 µM | 3.03 µM | 0.971 µM | 14 µM | 2.92 µM | > 100 µM | 1.41 µM | 2.95 µM |
| O=C(Nc1ccc(F)cc1F)c1cc(Br)ccc1O | 2.5 µM | 8.4 µM | 3.85 µM | > 100 µM | 2.69 µM | 12.7 µM | 3.53 µM | > 100 µM | 2.18 µM | > 100 µM | 1.91 µM | 6.99 µM | 1.85 µM | 5.75 µM | 2.96 µM | 12.2 µM | 3.01 µM | > 100 µM | 1.43 µM | 6.24 µM |
| O=CN1N=C(c2ccc(Cl)cc2)CC1c1cccc(Nc2ccnc3cc(Cl)ccc23)c1 (stereo not drawn) | 2.64 µM | > 100 µM | 2.8 µM | > 100 µM | 1.21 µM | 16.1 µM | 1.28 µM | 7.61 µM | 1.44 µM | > 100 µM | 1.55 µM | 13.5 µM | 1.27 µM | 7.25 µM | 1.13 µM | 11 µM | 1.92 µM | 29.1 µM | 3.15 µM | 31.2 µM |
| CCN=c1cc2sc3cc(NCC)c(C)cc3nc-2cc1C | 1.58 µM | 10.6 µM | 1.97 µM | 4.16 µM | 2.09 µM | 7.34 µM | 2.98 µM | 10.4 µM | 2.4 µM | 9.21 µM | 0.636 µM | 2.74 µM | 0.782 µM | 3.88 µM | 0.714 µM | > 100 µM | 1.22 µM | 11.8 µM | 11.7 µM | 25.6 µM |
| COc1ccc2c(c1)OC1=C(C(=O)OC1)C2c1cc(OC)c(OC)c(OC)c1 (stereo not drawn) | 1.27 µM | > 100 µM | 0.529 µM | > 42.4 µM | 0.545 µM | > 100 µM | 0.345 µM | > 100 µM | 3.18 µM | > 100 µM | 0.471 µM | > 100 µM | 0.468 µM | 87.6 µM | 0.542 µM | > 47.2 µM | 0.709 µM | > 100 µM | 0.667 µM | > 100 µM |
| Nc1cc(-c2cccc(OC(F)(F)F)c2)nc2ccc(N3CCCC3)cc12 | 0.0903 µM and 0.101 µM and 0.107 µM | 26 µM and > 100 µM | 0.0458 µM and 0.0446 µM and 0.0377 µM | 13.2 µM and > 100 µM and > 57.8 µM | 0.0463 µM and 0.0508 µM and 0.0489 µM | 22 µM and > 100 µM | 0.0355 µM and 0.0338 µM and 0.0354 µM | – | 0.0698 µM and 0.0623 µM and 0.0793 µM | 25.3 µM and > 100 µM | 0.0285 µM and 0.0215 µM and 0.0168 µM | 1.6 µM and 1.7 µM | 0.265 µM and 0.299 µM and 0.246 µM | – | 0.0447 µM and 0.0422 µM and 0.0405 µM | – | 0.0547 µM and 0.0497 µM and 0.0459 µM | 32.6 µM and > 100 µM | 1.46 µM and 3.07 µM and 3.91 µM | – |
| O=C1NC(=S)NC(=O)C1=Cc1cccc2cc3ccccc3cc12 | – | 3.51 µM | – | 3.63 µM | – | 4.16 µM | – | 3.74 µM | – | 3.61 µM | – | 4.89 µM | – | 4.17 µM | – | 5.24 µM | – | 3.9 µM | – | 6.58 µM |
| Cc1cc(-c2nnc(N)nc2-c2ccc(F)cc2)cc(Cl)n1 | 73.3 µM | > 100 µM | > 100 µM | > 100 µM | > 100 µM | > 100 µM | > 100 µM | > 100 µM | > 100 µM | > 100 µM | > 100 µM | > 100 µM | > 100 µM | > 100 µM | 49.9 µM | > 100 µM | > 100 µM | > 100 µM | > 100 µM | > 100 µM |
| COc1ccc(-c2nc3ncccn3c2/C=C/C(=O)c2cc(OC)c(OC)c(OC)c2)cc1 | 1.57 µM | 3.17 µM | 2.55 µM | 9.48 µM | 2.83 µM | 10.3 µM | 2.19 µM | 4.38 µM | 2.2 µM | 6.29 µM | 1.53 µM | 3.08 µM | 1.81 µM | 17.1 µM | 3.1 µM | > 100 µM | 2.72 µM | > 100 µM | 1.65 µM | 3.27 µM |
| Cc1cc2cc3c(C)cc(=O)oc3c(C)c2o1 | – | > 100 µM | – | > 100 µM | – | > 100 µM | – | > 100 µM | – | > 100 µM | – | > 100 µM | – | > 100 µM | – | > 100 µM | – | > 100 µM | – | > 100 µM |
| C=CCC(C(=O)O)c1ccccc1 (stereo not drawn) | – | > 100 µM | – | > 100 µM | – | > 100 µM | – | > 100 µM | – | > 100 µM | – | > 100 µM | – | > 100 µM | – | > 100 µM | – | > 100 µM | – | > 100 µM |
| C=CCN1C=CC(=O)[C@H](O[Si](C)(C)C(C)(C)C)[C@@H]1/C=C/c1ccccc1 | 15.5 µM | 29.2 µM | 15.7 µM | 30.1 µM | 15.1 µM | 28.9 µM | 5.39 µM | 19 µM | 17.1 µM | 34 µM | 13.2 µM | 27.5 µM | 17.3 µM | 34.3 µM | 10.7 µM | 28.8 µM | 30.6 µM | > 100 µM | 15 µM | 28.6 µM |
| Cc1ccc(C(=O)C(Cl)C(Cl)c2ccc(C)cc2)cc1 (stereo not drawn) | – | 3.13 µM | – | 15.3 µM | – | 45.4 µM | – | 4.31 µM | – | 6.34 µM | – | 35.5 µM | – | 32.1 µM | – | 6.67 µM | – | 7.7 µM | – | 8.68 µM |
| Cc1ccc(-c2nc(N)nc3c2nnn3Cc2cccc(CO[C@H]3CCOC3)n2)o1 | > 100 µM | > 100 µM | > 100 µM | > 100 µM | > 100 µM | > 100 µM | > 100 µM | > 100 µM | > 100 µM | > 100 µM | > 100 µM | > 100 µM | > 100 µM | > 100 µM | 98.4 µM | > 100 µM | > 100 µM | > 100 µM | > 100 µM | > 100 µM |
| COc1c(Cl)c2c(c(OC)c1OC)-c1ccc(SC)c(=O)cc1[C@@H](NC(=O)OCC(F)(F)F)CC2 | < 0.01 µM | > 100 µM | < 0.01 µM | 0.871 µM | < 0.01 µM | > 100 µM | < 0.01 µM | 23.8 µM | < 0.01 µM | > 100 µM | < 0.01 µM | – | < 0.0104 µM | 42.6 µM | < 0.01 µM | > 100 µM | < 0.01 µM | > 100 µM | 5.99 µM | > 100 µM |
| CN(C)C1CCN(C(=O)c2ccc(NC(=O)Nc3ccc(-c4nc(N5CCOCC5)nc(N5CCOCC5)n4)cc3)cc2)CC1 | 1.42 µM and 1.06 µM | > 100 µM | 0.0157 µM and 0.0156 µM and 0.0258 µM | 14.6 µM and 2.5 µM and 7.51 µM | 0.022 µM and 0.102 µM and 0.0324 µM | 0.382 µM and 1.9 µM and 1.1 µM | 0.0138 µM and 0.0153 µM and 0.0131 µM | 0.266 µM and 2.5 µM and 0.302 µM | < 0.01 µM and 0.00788 µM and 0.0103 µM | 0.0553 µM and 0.0574 µM and 0.141 µM | 0.23 µM and 0.144 µM and 0.0298 µM | 5.24 µM and 2.5 µM and 1.17 µM | 0.0138 µM and 0.0382 µM and 0.00899 µM | 0.053 µM and 0.24 µM and 0.054 µM | 0.0311 µM and 0.018 µM and 0.0772 µM | – | 0.0545 µM and 0.0926 µM and 0.437 µM | – | 0.0231 µM and 0.0392 µM and 0.0159 µM | 0.245 µM and 0.248 µM and 0.144 µM |
| C=C1C(=O)[C@@]23CC1C(O)[C@@H](OC(C)=O)[C@@H]2C1(C)C(OC(C)=O)C[C@@H](OC(C)=O)C(C)(C)[C@@H]1C[C@H]3OC(C)=O (stereo partly drawn) | 4.26 µg/mL | > 10 µM and 16.6 µg/mL | 16.9 µg/mL | > 10 µM and 30.6 µg/mL | 19.2 µg/mL | > 10 µM and 34.9 µg/mL | 6.13 µM and 2.61 µg/mL | > 10 µM and 7.22 µg/mL | > 10 µM and 13.1 µg/mL | > 10 µM and 27.7 µg/mL | 2.33 µM and 2.68 µg/mL | > 10 µM and 7.15 µg/mL | 1.57 µM and 1.72 µg/mL | 3.3 µM and 3.14 µg/mL | 1.71 µM and 1.28 µg/mL | 4.1 µM and 4.03 µg/mL | 3.37 µM and 3.94 µg/mL | > 10 µM and 20.1 µg/mL | 6.69 µM and 1.67 µg/mL | > 10 µM and 3.46 µg/mL |
| COC(=O)c1c2c(c(C)[n+]([O-])c1C)C(=O)C=C(NCc1ccc(OC)cc1)C2=O | 1.98 µM | 5.23 µM | 2.32 µM | 5.89 µM | 2.48 µM | 7.84 µM | 1.2 µM | > 36.7 µM | 1.06 µM | 3.59 µM | 1.92 µM | 4.3 µM | 0.3 µM | 0.845 µM | 1.55 µM | 5.3 µM | 1.11 µM | 4.48 µM | 3.2 µM | 10 µM |
| COc1ccc(CNc2c3ccccc3nc3ccc(OC)cc23)cc1 | 2.72 µM | 10.1 µM | 3.16 µM | 10.9 µM | 3.38 µM | 15.4 µM | 2.11 µM | 10.1 µM | 3.02 µM | 11.1 µM | 1.9 µM | 4.26 µM | 1.89 µM | 3.72 µM | 2.75 µM | 10.3 µM | 3.04 µM | 13.5 µM | 1.88 µM | 3.68 µM |
